Marks after values point to notes of the source that are not given here.
What was measured:
HL-60 cells = assay: Induction of differentiation of human leukemic cells (NBT reduction, NSE staining); type: cell-based; conditions: Leukemic cells + HHT; P < 0.001 vs leukemic cells
Procedure: Cell Lines. HL-60 cells were established from a patient with acute myeloid leukemia. The cells were cultured in culture flasks with RPMI plus 10% FCS.
Studies of Induction of Differentiation. Differentiation of HL-60 cells was assessed by their abilities to produced superoxide as measured by reduction of NBT, by NSE staining and by morphology as detected on cytospin preparations stained with Diff-Quick stain Set, and by analysis of membrane-bound differentiation markers with two-color immunofluorescence. Briefly, cells were preincubated at 4° C. for 60 min in 10% human AB serum and then with FITC-conjugated mouse IgGI isotype control. Analysis of fluorescence was performed on a flow cytometer.

gastric cancer cells = assay: Differentiation of gastric cancer cells (NBT, NSE); type: cell-based; conditions: Gastric cancer cells + HHT; P < 0.001
Procedure: The gastric cancer cells and normal cells were cultured in PRMI 1640 medium supplement with 10% FCS serum. Other method is similar to example 1.

Epidermis cancer cells = assay: Differentiation of epidermis cancer cells (NBT, NSE); type: cell-based, mouse; conditions: Epidermis cancer cells + HHT; P < 0.001
[1] = test system: TPA-stimulated mouse epidermis; assay: [3H] thymidine incorporation (DNA synthesis) in TPA-stimulated mouse epidermis; type: in vivo; conditions: TPA-treated mice
Procedure: It is known that tetradecanoyphorbol-13-acetate (TPA) is strong tumor promoter and TPA can remarkable increase [^3H] thymidine incorporation in mouse epidermis and then to induce Epidermis cancer.
ice were treated with TPA and the rate of [^3H] thymidine incorporation was determined 20 hours later. Male mice (7-9 weeks old) used for experiments. Only mice showing no hair regrowth following shaving were used. Animals were injected intraperitoneally (i.p.) with TPA or 95% saline. After 20 hours, mice were injected i.p. with 60 μCi of [^3H] thymidine (2 Ci/mmol) 20 minutes before sacrifice. Epidermal scrapings were prepared. Epidermis cancer cells were cultured in condition of example 1.

[2] = test system: Human leukemia cells (HL-60); assay: Apoptosis of cancer cells; type: cell-based; conditions: drug concentration 20 μm
Procedure: Human leukemia cells (HL-60) were grown in RPMI Medium 1640 supplemented with 10% (v/v) heat-inactivated FBS (56° C. for 30 min) at 37° C. in a humidified 95% air/5% CO2 atmosphere. Cells were seeded at a level of 2×10^5 cells/ml. Cells were allowed to attain a maximum density of 1.2×10^6 cells/ml before being passed by dilution into fresh medium to a concentration of 2×10^5 cells/ml.
Apoptosis Determined by two Methods:
Method (1): Cell pellets containing 5×10^6 cells were fixed with 2.5% glutaraldehyde in cacodylate buffer (pH 7.4), dehydrated through graded alcohol, and infiltrated with LX-112 epoxy resin. After overnight polymerization at 60°C. […]
DNA electrophoresis: Untreated and treated HL-60 cells collected by centrifugation, washed in phosphate buffered saline and re-suspended at a concentration of 5×10^6 cells and 0.1% RNase A. The mixture was incubated at 37° C. for 30 min and then incubated for an additional 30 min at 37° C. with 1 ml protease K. Buffer was added and 25 μl of the tube content transferred to the Horizontal 1.5% agarose gel electrophoresis was performed at 2 V/cm. […] DNA fragmentation assays: DNA cleavage was performed, quantitation of fractional solubilized DNA by diphenylamine assay and the percentage of cells harboring fragmented DNA determined by in labeling techniques. […] DNA was precipitated with 0.5 N perchloric acid and quantitated using diphenylamine reagent. […]

c-myb RNA = assay: Oncogene expression by northern blot in ML-1 cells: c-myb; type: cell-based, Human
Procedure: (§1) Human myeloblastic leukemic cells (ML-1) were maintained in suspension culture in RPMI 1640 medium supplemented with 7.5% heat-inactivated FBS. Cells growth and viability were assayed by hemocytometer using trypan-blue dye exclusion.
(§2) RNA was isolated by the CsCl gradient modification. RNA pellets were washed twice by reprecipitation in ethanol and quantitated by absorbency at […]. RNA analyzed by electrophoresis of 15 μg of RNA through 1.2% agarose formaldehyde gels followed by northern blot transfer to nitrocellulose.
(§3) Single-standard uniformly labeled DNA probes were prepared. Probe of c-myc was a 1.7 Kb cla-Eco RI restriction fragment containing the 3′exon region of human c-myc and probe of c-myb was 1.0 Kb myb-specific Bam HI fragment. Probes for n-ras contained DNA fragments using a modification of the PCR technique. Probes for myb, myc and n-ras were isolated. The isolated fragments were labeled to high specific activity with […] (3000 ci/mmol). Prehybridization of the filter was performed. The hybridization mixer contained 50,000 cpm of probe. The probes were hybridized at 58° C. in 15 mM NaCl, […] sodium citrate for 3 hours. After hybridization, they were exposed to XAR-5 film. Oncogene expression was quantitated by densitometer scanning of the autoradiography.

c-myc RNA = assay: Oncogene expression by northern blot in ML-1 cells: c-myc; type: cell-based, Human
Procedure: as §1, §2, §3

tumor suppressor p^53 = assay: p53 mutations by PCR-SSCP; type: cell-based
Procedure: The leukemic cancer cells and normal cells were cultured in RPMI 1640 medium supplement with 10% fetal bovine serum. All the exons of the p^53 were amplified by the polymease chain reaction (PCR) using specific oligonucleotide primers. The PCR products were subjected to single-strand conformation polymorphism (SSCP) analysis. […] Levels of DNA methylation were determined.

tumor suppressor p^17 = assay: p17 allelic loss by PCR-SSCP; type: cell-based
Procedure: The p^17 is a tumor suppressor. The gastric cancer cells were used in this experiment. Gastric cancer cells and normal cells were cultured in RPMI 1640 medium supplement with 10% fetal bovine serum. All the exons of tumor suppressor p^17 were amplified by the polymease chain reaction (PCR) using specific oligonucleotide primers. The PCR products were subjected to single-strand conformation polymorphism (SSCP) analysis. A second PCR-SSCP analysis was performed. Levels of DNA methylation were determined.

tumor suppressor p^16 = assay: Methylation of tumor suppressor p16 (PCR-based) in bladder cell lines; conditions: Cancer cells treated by HHT (no treatment: 81.5; normal: 15.8)
Source text: Bladder cell lines were used. Methods of RT-PCR were regular. PCR-based methylation determined by inability of some restriction enzymes to cut methylated sequences methods of determination was used to analyze the methylaton status of the p^16 and p^15 . PCR products were resolved on 2% agarose gels transferred to a nylon membrane and hydridized for the RT-PCR products. An undigested DNA control and MSPI-digested DNA control were examined.

HL-60 = assay: Tumor cell proliferation inhibition, HL-60; type: cell-based, Human; conditions: 1 μg/ml drug, 72 hours
Procedure: (§4) Human tumor cell lines: Hela leukemia HL-60, malignant melanocarcinoma B16, oral epidermoid carcinoma (KB), lung carcinoma (A549), breast carcinoma MCF-7, adenocarcinoma of stomach.
(§5) Animal tumor cell lines: Walker carcinoma, LLC-WRC-256, malignant melanoma (RMMI 1846), 3T3,and S-180 sarcoma (CCRF-180). All lines were routinely cultured in the RPMI1640 medium supplemented 20% fetal calf serum. The experiment was carried out in 96 microplate, each well had […] and given desired concentration of 1 μg/ml (1 x 10^−6 g/ml) drug. Then the plate was incubated at 37° C. in an atmosphere of humidified air enriched with 5 percent carbon dioxide for 72 hours.
(§6) Inhibition percent rate of tumor cell proliferation was obtained according to the bellow formula. [formula]

Hela = assay: Tumor cell proliferation inhibition, Hela; type: cell-based, Human; conditions: 1 μg/ml drug, 72 hours
Procedure: as §4, §5, §6

[3] = test system: malignant melanocarcinoma B16; assay: Tumor cell proliferation inhibition, B16; type: cell-based, Mouse; conditions: 1 μg/ml drug, 72 hours
Procedure: as §4, §5, §6

[4] = test system: oral epidermoid carcinoma (KB); assay: Tumor cell proliferation inhibition, KB; type: cell-based, Human; conditions: 1 μg/ml drug, 72 hours
Procedure: as §4, §5, §6

breast carcinoma MCF-7 = assay: Tumor cell proliferation inhibition, MCF-7; type: cell-based, Human; conditions: 1 μg/ml drug, 72 hours
Procedure: as §4, §5, §6

[5] = test system: Neuroblastoma tumor cells, melanocytic and epithelial cells; assay: Apoptosis with HHT and APO-2L (filter binding assay); type: cell-based
Procedure: (§7) Neuroblastoma tumor cells, melanocytic and epithelial cells used in this experiment. Cells were grown routinely as monolayers in a 1:1 mixture of Eagle's minimum essential medium and Ham's nutrient mixture F-12 supplemented with 15% heat-inactivated fetal calf serum. Cells were used over a maximum of 15 passages to minimize intersubline differentiation.
Cytotoxicity Assays. Etoposide sensitivity was measured by clonogenic assay. Five hundred cells were plated per 2-cm^2 dish. Cells were treated for 1 hour with HHT or medium. Results are the mean ±S.E. of three independent experiments and duplicate plates were used in each individual experiment. Apoptosis was quantified by the filter binding assay.

caspase-3 = assay: Determination of caspase activation (Ac-DEVD-AMC substrate, cell lysate); type: cell-based; conditions: control 25.4 ± 3.0
Procedure: as §7
Determination of Caspase Activation. The substrate used was Ac-DEVD-AMC, which was made to 5 mM stock in dimethylformamide. On the day of the assay, substrate stock was diluted in water to 500 μM and kept on ice. Cell lysate (20 μg) was diluted to equal volumes (20 μl) in Nonidet-P40 lysis buffer and 1/10th of the volume of substrate was added. Exactly 10 min later, the reaction was stopped by adding the mix into 2 ml of water. Fluorescence was read on a fluorometer at an excitation wavelength of 380 nm and emission wavelength of 460 nm.

mice = assay: LD50 in mice; type: in vivo; conditions: I.P.
Procedure: (§8) Toxic doses for dogs: 0.16 mg/kg/day×7 of HHT was established as the toxic doses. Toxic doses for mice: In 38 normal mice after injection of HHT of 2 mg/kg/day×5 with the observation period of 5 days about 50% of the mice died.

dogs = assay: Toxic doses for dogs; type: in vivo; conditions: ×7
Procedure: as §8

normal mice = assay: Toxic doses for mice (repeated injection); type: in vivo; conditions: 38 normal mice, injection of 2 mg/kg/day×5, observation period of 5 days
Procedure: as §8

## COC(=O)C[C@](O)(CCCC(C)(C)O)C(=O)O[C@@H]1C(OC)=C[C@]23CCCN2CCc2cc4c(cc2[C@H]13)OCO4 [HHT, homoharringtonine]
HL-60 cells
  NBT (%): 65* %
  NSE (%): 62* %
Gastric cancer cells
  NBT (%): 58* %
  NSE (%): 60* %
Epidermis cancer cells
  NBT (%): 80* %
  NSE (%): 78* %
[1]
  DNA synthesis of TPA-stimulated mouse epidermis: remarkable inhibit
[2]
  Apoptosis (%): 68.3 ± 7.6%
c-myb RNA; HHT concentration 10 ng/ml
  Inhibition (%) c-myb RNA: 65.0 ± 5.7%
c-myb RNA; HHT concentration 50 ng/ml
  Inhibition (%) c-myb RNA: 67.7 ± 6.8%
c-myc RNA; HHT concentration 10 ng/ml
  Inhibition (%) c-myc RNA: 70.5 ± 8.5%
c-myc RNA; HHT concentration 50 ng/ml
  Inhibition (%) c-myc RNA: 70.8 ± 8.9%
Tumor suppressor p^53; Gastric cancer cells treated by HHT (no drug: 35)
  Frequency of p^53 mutations (%): 5%
Tumor suppressor p^53; p^53 mutations, Gastric cancer cells treated by HHT
  Inhibition T/C (%): 14.3 ± 1.5%
Tumor suppressor p^17; Leukemic cancer cells treated by HHT (untreated: 40)
  Frequency of p^17 allelic loss (%): 5%
Tumor suppressor p^17; p^17 allelic loss, Leukemic cancer cells treated by HHT
  Inhibition T/C (%): 12.5 ± 1.2%
Tumor suppressor p^16
  Methylation (%): 23.8^b %
HL-60
  Inhibition (%): 80.8 ± 9.0%
Hela
  Inhibition (%): 75.6 ± 8.0%
[3]
  Inhibition (%): 73.8 ± 8.1%
[4]
  Inhibition (%): 80.0 ± 8.5%
Breast carcinoma MCF-7
  Inhibition (%): 78.5 ± 7.9%
[5]; HHT 500 nM (control 5.0 ± 0.49)
  Apoptosis (%): 39.5 ± 4.1%
caspase-3
  Caspase-3 activity: 150.5 ± 16
mice
  LD50: 3.17 ± 0.19 mg/kg
dogs
  Toxic dose: 0.16 mg/kg/day
Normal mice
  mice died: about 50%

B1: APO-2L: also called TRAIL, has been shown to induce apoptosis of variety of cancer cell types (protein, UniProt P50591 1-281, looked up)
Tumor necrosis factor ligand …: MAMMEVQGGPSLGQTCVLIVIFTVLLQSLCVAVTYVYFTNELKQMQDKYSKSGIACFLKEDDSYWDPNDEESMNSPCWQVKWQLRQLVRKMILRTSEETISTVQEKQQNISPLVRERGPQRVAAHITGTRGRSNTLSSPNSKNEKALGRKINSWESSRSGHSFLSNLHLRNGELVIHEKGFYYIYSQTYFRFQEEIKENTKNDKQMVQYIYKYTSYPDPILLMKSARNSCWSKDAEYGLYSIYQGGIFELKENDRIFVSVTNEHLIDMDHEASFFGAFLVG
[5]; APO-2L (control 5.0 ± 0.49)
  Apoptosis (%): 20.8 ± 2.0%

From patent US20030175365A1, “Natural drug induced differentiation cancer cells to resemble normal cells” (priority 2002, published 2003)
